Literature values, collected in patent US20240299268A1, “A COMPOSITION FOR CARING FOR KERATIN MATERIALS” (L'OREAL, priority 2021, published 2024).
Where two headings read alike, the source gives them in different places.

- time until decarboxylation (loss in stability, unpleasant odor) when contacting with water (content of ferulic acid no less than 1 wt. %): 30 days
- time until decarboxylation (loss in stability, unpleasant odor) when contacting with water (content of ferulic acid no less than 1.5 wt. %): 15 days
- time until decarboxylation (loss in stability, unpleasant odor) when contacting with water (content of ferulic acid no less than 1.9 wt. %): 7 days
Compound: COc1cc(/C=C/C(=O)O)ccc1O [Ferulic acid, 4-Hydroxy-3-methoxycinnamic acid]
